Measurements from the supplement of paper PMC10307832.

How the values were obtained:
Experiment in all cases: relative viability (nuclei count vs DMSO), 5 days (fraction); higher = more cells survive
LU99A = system: LU99A
Method in brief: (§1)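 Lung cancer cell lines were pin-tool dosed in 1536-well plates on the day after seeding, with either a lone drug or a fixed anchor-drug dose plus five library-drug doses (not always all listed) in √10 steps. Nuclei were counted on 4× images after 5 days. Relative viability is the ratio of treated-well to vehicle-well nuclei counts, with each value a median of duplicate plates.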

SK-MES-1 = system: SK-MES-1
Method in brief: as §1

HARA = system: HARA
Method in brief: as §1

COR-L23 = system: COR-L23
Method in brief: as §1

COR-L 105 = system: COR-L 105
Method in brief: as §1

LXF-289 = system: LXF-289
Method in brief: as §1

NCI-H727 = system: NCI-H727
Method in brief: as §1

NCI-H2170 = system: NCI-H2170
Method in brief: as §1

CAL-12T = system: CAL-12T
Method in brief: as §1

NCI-H2009 = system: NCI-H2009
Method in brief: as §1

HCC-366 = system: HCC-366
Method in brief: as §1

PC-3 [JPC-3] = system: PC-3 [JPC-3]
Method in brief: as §1

NCI-H2126 = system: NCI-H2126
Method in brief: as §1

BEN = system: BEN
Method in brief: as §1

HCC-15 = system: HCC-15
Method in brief: as §1

HCC-827 = system: HCC-827
Method in brief: as §1

NCI-H1993 = system: NCI-H1993
Method in brief: as §1

HCC-44 = system: HCC-44
Method in brief: as §1

LCLC-97TM1 = system: LCLC-97TM1
Method in brief: as §1

PC-14 = system: PC-14
Method in brief: as §1

LC-2-ad = system: LC-2-ad
Method in brief: as §1

HOP-62 = system: HOP-62
Method in brief: as §1

NCI-H2087 = system: NCI-H2087
Method in brief: as §1

O=C(O)CCCCC(CCSCc1ccccc1)SCc1ccccc1 (centres undefined) [CPI-613] + O=C(CCCCCCC(=O)Nc1ccccc1)NO [Vorinostat] (partner 1 µM)
relative viability (LU99A; first compound 5 µM): 0.474 | relative viability (LU99A; first compound 15.81 µM): 0.408 | relative viability (LU99A; first compound 50 µM): 0.466 | relative viability (LU99A; first compound 158.11 µM): 0.394 | relative viability (LU99A; first compound 500 µM): 0.223 | relative viability (SK-MES-1; first compound 5 µM): 1.09 | relative viability (SK-MES-1; first compound 15.81 µM): 0.921 | relative viability (SK-MES-1; first compound 50 µM): 1.01 | relative viability (SK-MES-1; first compound 158.11 µM): 0.169 | relative viability (SK-MES-1; first compound 500 µM): 0.0799 | relative viability (HARA; first compound 5 µM): 0.479 | relative viability (HARA; first compound 15.81 µM): 0.529 | relative viability (HARA; first compound 50 µM): 0.506 | relative viability (HARA; first compound 158.11 µM): 0.0931 | relative viability (HARA; first compound 500 µM): 0.024 | relative viability (COR-L23; first compound 5 µM): 0.42 | relative viability (COR-L23; first compound 15.81 µM): 0.387 | relative viability (COR-L23; first compound 50 µM): 0.371 | relative viability (COR-L23; first compound 158.11 µM): 0.125 | relative viability (COR-L23; first compound 500 µM): 0.0123 | relative viability (COR-L 105; first compound 5 µM): 0.765 | relative viability (COR-L 105; first compound 15.81 µM): 0.675 | relative viability (COR-L 105; first compound 50 µM): 1.04 | relative viability (COR-L 105; first compound 158.11 µM): 0.375 | relative viability (COR-L 105; first compound 500 µM): 0.261 | relative viability (LXF-289; first compound 5 µM): 0.699 | relative viability (LXF-289; first compound 15.81 µM): 0.707 | relative viability (LXF-289; first compound 50 µM): 0.722 | relative viability (LXF-289; first compound 158.11 µM): 0.483 | relative viability (LXF-289; first compound 500 µM): 0.567 | relative viability (NCI-H727; first compound 5 µM): 1.1 | relative viability (NCI-H727; first compound 15.81 µM): 1.07 | relative viability (NCI-H727; first compound 50 µM): 1.04 | relative viability (NCI-H727; first compound 158.11 µM): 1.01 | relative viability (NCI-H727; first compound 500 µM): 0.642 | relative viability (NCI-H2170; first compound 5 µM): 0.723 | relative viability (NCI-H2170; first compound 15.81 µM): 0.783 | relative viability (NCI-H2170; first compound 50 µM): 0.774 | relative viability (NCI-H2170; first compound 158.11 µM): 0.541 | relative viability (NCI-H2170; first compound 500 µM): 0.31 | relative viability (CAL-12T; first compound 5 µM): 0.674 | relative viability (CAL-12T; first compound 15.81 µM): 0.545 | relative viability (CAL-12T; first compound 50 µM): 0.708 | relative viability (CAL-12T; first compound 158.11 µM): 0.0538 | relative viability (CAL-12T; first compound 500 µM): 0.039 | relative viability (NCI-H2009; first compound 5 µM): 0.726 | relative viability (NCI-H2009; first compound 15.81 µM): 0.672 | relative viability (NCI-H2009; first compound 50 µM): 0.657 | relative viability (NCI-H2009; first compound 158.11 µM): 0.152 | relative viability (NCI-H2009; first compound 500 µM): 0.0308 | relative viability (HCC-366; first compound 5 µM): 0.371 | relative viability (HCC-366; first compound 15.81 µM): 0.314 | relative viability (HCC-366; first compound 50 µM): 0.291 | relative viability (HCC-366; first compound 158.11 µM): 0.0721 | relative viability (HCC-366; first compound 500 µM): 0.0058 | relative viability (PC-3 [JPC-3]; first compound 5 µM): 0.83 | relative viability (PC-3 [JPC-3]; first compound 50 µM): 0.738 | relative viability (PC-3 [JPC-3]; first compound 158.11 µM): 0.623 | relative viability (PC-3 [JPC-3]; first compound 500 µM): 0.389 | relative viability (NCI-H2126; first compound 5 µM): 0.743 | relative viability (NCI-H2126; first compound 15.81 µM): 0.68 | relative viability (NCI-H2126; first compound 50 µM): 0.831 | relative viability (NCI-H2126; first compound 158.11 µM): 0.342 | relative viability (NCI-H2126; first compound 500 µM): 0.179 | relative viability (BEN; first compound 5 µM): 0.491 | relative viability (BEN; first compound 15.81 µM): 0.529 | relative viability (BEN; first compound 50 µM): 0.558 | relative viability (BEN; first compound 158.11 µM): 0.593 | relative viability (BEN; first compound 500 µM): 0.607 | relative viability (HCC-15; first compound 5 µM): 0.801 | relative viability (HCC-15; first compound 15.81 µM): 0.774 | relative viability (HCC-15; first compound 50 µM): 0.779 | relative viability (HCC-15; first compound 158.11 µM): 0.181 | relative viability (HCC-15; first compound 500 µM): 0.0657 | relative viability (HCC-827; first compound 5 µM): 0.769 | relative viability (HCC-827; first compound 15.81 µM): 0.703 | relative viability (HCC-827; first compound 50 µM): 0.773 | relative viability (HCC-827; first compound 158.11 µM): 0.497 | relative viability (HCC-827; first compound 500 µM): 0.656 | relative viability (NCI-H1993; first compound 5 µM): 0.569 | relative viability (NCI-H1993; first compound 15.81 µM): 0.495 | relative viability (NCI-H1993; first compound 50 µM): 0.61 | relative viability (NCI-H1993; first compound 158.11 µM): 0.404 | relative viability (NCI-H1993; first compound 500 µM): 0.227 | relative viability (HCC-44; first compound 5 µM): 1.01 | relative viability (HCC-44; first compound 15.81 µM): 1.11 | relative viability (HCC-44; first compound 50 µM): 1.08 | relative viability (HCC-44; first compound 158.11 µM): 0.579 | relative viability (HCC-44; first compound 500 µM): 0.265 | relative viability (LCLC-97TM1; first compound 5 µM): 0.479 | relative viability (LCLC-97TM1; first compound 15.81 µM): 0.492 | relative viability (LCLC-97TM1; first compound 50 µM): 0.769 | relative viability (LCLC-97TM1; first compound 158.11 µM): 0.331 | relative viability (LCLC-97TM1; first compound 500 µM): 0.0868 | relative viability (PC-14; first compound 5 µM): 0.732 | relative viability (PC-14; first compound 15.81 µM): 0.612 | relative viability (PC-14; first compound 50 µM): 0.611 | relative viability (PC-14; first compound 158.11 µM): 0.0514 | relative viability (PC-14; first compound 500 µM): 0.0074 | relative viability (LC-2-ad; first compound 5 µM): 0.624 | relative viability (LC-2-ad; first compound 15.81 µM): 0.631 | relative viability (LC-2-ad; first compound 50 µM): 0.594 | relative viability (LC-2-ad; first compound 158.11 µM): 0.0484 | relative viability (LC-2-ad; first compound 500 µM): 0.0025 | relative viability (HOP-62; first compound 5 µM): 0.531 | relative viability (HOP-62; first compound 15.81 µM): 0.49 | relative viability (HOP-62; first compound 50 µM): 0.574 | relative viability (HOP-62; first compound 158.11 µM): 0.285 | relative viability (HOP-62; first compound 500 µM): 0.0726 | relative viability (NCI-H2087; first compound 5 µM): 0.817 | relative viability (NCI-H2087; first compound 15.81 µM): 0.725 | relative viability (NCI-H2087; first compound 50 µM): 0.689 | relative viability (NCI-H2087; first compound 158.11 µM): 0.374 | relative viability (NCI-H2087; first compound 500 µM): 0.0093
